Literature values, collected in US11285184B2, “Cannabidiol alkaline composition” (CHIROSYN DISCOVERY TECHNOLOGIES INC., priority 2018, dated 2022).

Conditions: CBD dissolved in sulfuric acid/acetic acid

## C=C(C)[C@@H]1CCC(C)=C[C@H]1c1c(O)cc(CCCCC)cc1O [CBD, 2-[1R-3-methyl-6R-(1-methylethenyl)-2-cyclohexen-1-yl]-5-pentyl-1,3-benzenediol]
  Δ-8-THC formed from CBD: 2%
  Δ-9-THC formed from CBD: 52%
